Laboratory results reported in US20250025482A1, “USE OF C[…] THE TREATMENT OF EPILEPSY” (GW Research Limited, priority 2021, published 2025).

How the values were obtained:
Format in all cases: in vivo, human (patients)
[1] = system: Patients aged 1-2 years old with Dravet Syndrome (DS); experiment: Expanded access treatment with highly purified CBD extract, seizure frequency, Patient 1 (Dravet Syndrome); set-up: key to Seizure frequency, Clonic / Seizure frequency, Tonic-clonic / Seizure frequency, Focal with impairment: number of seizures per day; settings: for Seizure frequency, Focal with impairment / Seizure frequency, Tonic-clonic: baseline 3.0; for Seizure frequency, Clonic: baseline 4.0
Method: (§1) Example 1 below describes the use of a highly purified cannabis extract comprising cannabidiol (CBD) in an expanded access treatment program in children with TRE.
(§2) Patients aged 1-2 years old with Dravet Syndrome (DS), Lennox-Gastaut Syndrome (LGS), or Tuberous Sclerosis Complex (TSC) were administered a highly purified extract of cannabidiol (CBD) obtained from a cannabis plant […].
(§3) The highly purified CBD extract (greater than 98% CBD w/w) was administered in a formulation described herein at a starting dose of 5 mg/kg/day in addition to their baseline anti-epileptic drug (AED) regimen.
(§4) The starting dose of the patients was increased from 5 mg/kg/day to 10 mg/kg/day after one week of administering the first dose of CBD.
(§5) All patients were taking at least two concomitant anti-epileptic drugs. These included clobazam; levetiracetam; topiramate; vigabatrin; phenobarbital; and lacosamide.
(§6) Prior to treatment with CBD, the number of seizures for each patient at baseline was recorded. During the course of treatment, the number of seizures that each patient experienced per day was recorded. Table 9 provides information on the demographics, seizure type, and concomitant anti-epileptic drugs (AED) for each patient that was administered the highly purified extract of CBD.

[2] = system: Patients aged 1-2 years old with Lennox-Gastaut Syndrome (LGS); experiment: Expanded access treatment with highly purified CBD extract, seizure frequency, Patient 2 (Lennox-Gastaut Syndrome); set-up: key to Seizure frequency, Clonic / Seizure frequency, Tonic / Seizure frequency, Atonic / Seizure frequency, Absence: number of seizures per day; settings: for Seizure frequency, Tonic: baseline 4.0; for Seizure frequency, Absence: baseline 120.0; for Seizure frequency, Clonic: baseline 200.0; for Seizure frequency, Atonic: baseline 300.0
Method: as §1, §2, §3, §4, §5, §6

[3] = system: Patients aged 1-2 years old with Tuberous Sclerosis Complex (TSC); experiment: Expanded access treatment with highly purified CBD extract, seizure frequency, Patient 3 (Tuberous Sclerosis Complex); set-up: key to Seizure frequency, Focal with impairment / Seizure frequency, Focal without impairment: number of seizures per day; settings: for Seizure frequency, Focal without impairment / Seizure frequency, Focal with impairment / Seizure frequency, Focal with secondary generalisation: Patient 3, Tuberous Sclerosis; for Seizure frequency, Focal without impairment: baseline 0.0; for Seizure frequency, Focal with impairment: baseline 25.4; for Seizure frequency, Focal with secondary generalisation: baseline 63.0
Method: as §1, §2, §3, §4, §5, §6

seizures in patients = experiment: Onset of effect of seizure reduction during CBD titration; settings: patients receiving 5 mg/kg/day; e.g., at 2, 3, 4, 5, or 6 days
[4] = Patient 1, Dravet Syndrome, 2 weeks, dose CBD 11.7 mg/kg/day
[5] = Patient 1, Dravet Syndrome, 4 weeks, dose CBD 19.2 mg/kg/day
[6] = Patient 1, Dravet Syndrome, 8 weeks, dose CBD 24.3 mg/kg/day
[7] = Patient 1, Dravet Syndrome, 16 weeks, dose CBD 25.4 mg/kg/day
[8] = Patient 1, Dravet Syndrome, 24 weeks, dose CBD 24.8 mg/kg/day
[9] = Patient 1, Dravet Syndrome, 36 weeks, dose CBD 23.0 mg/kg/day
[10] = Patient 1, Dravet Syndrome, 48 weeks, dose CBD 22.6 mg/kg/day
[11] = Patient 1, Dravet Syndrome, over the treatment period
[12] = Patient 2, Lennox-Gastaut Syndrome, 4 weeks, dose CBD 25.0 mg/kg/day
[13] = Patient 2, Lennox-Gastaut Syndrome, 8 weeks, dose CBD 50.0 mg/kg/day
[14] = Patient 2, Lennox-Gastaut Syndrome, 12 weeks, dose CBD 49.6 mg/kg/day
[15] = Patient 2, Lennox-Gastaut Syndrome, 24 weeks, dose CBD 49.0 mg/kg/day
[16] = Patient 2, Lennox-Gastaut Syndrome, 36 weeks, dose CBD 48.6 mg/kg/day
[17] = Patient 2, Lennox-Gastaut Syndrome, 60 weeks, dose CBD 3.7 mg/kg/day
[18] = Patient 2, Lennox-Gastaut Syndrome, 72 weeks, dose CBD 50.0 mg/kg/day
[19] = Patient 2, Lennox-Gastaut Syndrome, over the treatment period
[20] = Patient 3, Tuberous Sclerosis Complex, over the treatment period
[21] = 2 weeks, dose CBD 10.0 mg/kg/day
[22] = 4 weeks, dose CBD 20.0 mg/kg/day
[23] = 8 weeks, dose CBD 15.0 mg/kg/day
[24] = 16 weeks, dose CBD 15.0 mg/kg/day
[25] = 24 weeks, dose CBD 13.0 mg/kg/day
[26] = 36 weeks, dose CBD 13.0 mg/kg/day
[27] = 48 weeks, dose CBD 13.0 mg/kg/day
[28] = 60 weeks, dose CBD 11.5 mg/kg/day
[29] = 84 weeks, dose CBD 27.0 mg/kg/day
[30] = 96 weeks, dose CBD 22.0 mg/kg/day
[31] = 108 weeks, dose CBD 13.0 mg/kg/day
[32] = 120 weeks, dose CBD 29.0 mg/kg/day
[33] = 144 weeks, dose CBD 35.0 mg/kg/day

## C=C(C)[C@@H]1CCC(C)=C[C@H]1c1c(O)cc(CCCCC)cc1O [CBD, Cannabidiol]
[1]; Patient 1
  relief from clonic seizures after treatment: complete relief
  relief from focal seizures with impairment after treatment: complete relief
[1]; [4]
  Seizure frequency, Focal with impairment: 0.0
  Seizure frequency, Tonic-clonic: 4.0
  Seizure frequency, Clonic: 6.0
[1]; [5]
  Seizure frequency, Focal with impairment: 0.0
  Seizure frequency, Tonic-clonic: 2.0
  Seizure frequency, Clonic: 4.0
[1]; [6]
  Seizure frequency, Focal with impairment: 0.0
  Seizure frequency, Tonic-clonic: 0.0
  Seizure frequency, Clonic: 2.0
[1]; [7]
  Seizure frequency, Focal with impairment: 0.0
  Seizure frequency, Tonic-clonic: 0.0
  Seizure frequency, Clonic: 2.6
[1]; [8]
  Seizure frequency, Focal with impairment: 0.0
  Seizure frequency, Tonic-clonic: 1.6
  Seizure frequency, Clonic: 0.8
[1]; [9]
  Seizure frequency, Focal with impairment: 0.0
  Seizure frequency, Tonic-clonic: 6.9
  Seizure frequency, Clonic: 0.0
[1]; [10]
  Seizure frequency, Focal with impairment: 0.0
  Seizure frequency, Tonic-clonic: 6.5
  Seizure frequency, Clonic: 0.0
[1]; [11]
  reduction in clonic seizures: 100%
  reduction in focal seizures with impairment: 100%
[2]; Patient 2
  relief from clonic seizures after treatment: complete relief
[2]; [12]
  Seizure frequency, Tonic: 116.0
  Seizure frequency, Absence: 116.0
  Seizure frequency, Clonic: 64.0
  Seizure frequency, Atonic: 388.0
[2]; [13]
  Seizure frequency, Tonic: 48.0
  Seizure frequency, Absence: 78.0
  Seizure frequency, Clonic: 40.0
  Seizure frequency, Atonic: 564.0
[2]; [14]
  Seizure frequency, Tonic: 116.0
  Seizure frequency, Absence: 140.0
  Seizure frequency, Clonic: 40.0
  Seizure frequency, Atonic: 300.0
[2]; [15]
  Seizure frequency, Tonic: 116.0
  Seizure frequency, Absence: 140.0
  Seizure frequency, Clonic: 40.0
  Seizure frequency, Atonic: 280.0
[2]; [16]
  Seizure frequency, Tonic: 116.0
  Seizure frequency, Absence: 140.0
  Seizure frequency, Clonic: 40.0
  Seizure frequency, Atonic: 280.0
[2]; [17]
  Seizure frequency, Tonic: 1.0
  Seizure frequency, Absence: 40.0
  Seizure frequency, Clonic: 0.0
  Seizure frequency, Atonic: 1.0
[2]; [18]
  Seizure frequency, Tonic: 20.0
  Seizure frequency, Absence: 0.0
  Seizure frequency, Clonic: 0.0
  Seizure frequency, Atonic: 0.0
[2]; [19]
  reduction in absence seizures: 100%
  reduction in atonic seizures: 100%
  reduction in clonic seizures: 100%
[3]; Patient 3
  relief from focal seizures with impairment after treatment: complete relief
[3]; [20]
  reduction in focal seizures with impairment: 100%
  reduction in focal seizures with secondary generalisation: 100%
[3]; [21]
  Seizure frequency, Focal without impairment: 0.0
  Seizure frequency, Focal with impairment: 20.0
  Seizure frequency, Focal with secondary generalisation: 50.0
[3]; [22]
  Seizure frequency, Focal without impairment: 0.0
  Seizure frequency, Focal with impairment: 22.0
  Seizure frequency, Focal with secondary generalisation: 61.0
[3]; [23]
  Seizure frequency, Focal without impairment: 0.0
  Seizure frequency, Focal with impairment: 15.4
  Seizure frequency, Focal with secondary generalisation: 109.1
[3]; [24]
  Seizure frequency, Focal without impairment: 0.0
  Seizure frequency, Focal with impairment: 0.6
  Seizure frequency, Focal with secondary generalisation: 46.2
[3]; [25]
  Seizure frequency, Focal without impairment: 0.0
  Seizure frequency, Focal with impairment: 0.0
  Seizure frequency, Focal with secondary generalisation: 58.1
[3]; [26]
  Seizure frequency, Focal without impairment: 0.0
  Seizure frequency, Focal with impairment: 0.0
  Seizure frequency, Focal with secondary generalisation: 0.0
[3]; [27]
  Seizure frequency, Focal without impairment: 0.0
  Seizure frequency, Focal with impairment: 0.0
  Seizure frequency, Focal with secondary generalisation: 14.8
[3]; [28]
  Seizure frequency, Focal without impairment: 0.0
  Seizure frequency, Focal with impairment: 71.3
  Seizure frequency, Focal with secondary generalisation: 0.0
[3]; [29]
  Seizure frequency, Focal without impairment: 0.0
  Seizure frequency, Focal with impairment: 62.5
  Seizure frequency, Focal with secondary generalisation: 0.0
[3]; [30]
  Seizure frequency, Focal without impairment: 0.0
  Seizure frequency, Focal with impairment: 14.8
  Seizure frequency, Focal with secondary generalisation: 0.0
[3]; [31]
  Seizure frequency, Focal without impairment: 10.8
  Seizure frequency, Focal with impairment: 0.3
  Seizure frequency, Focal with secondary generalisation: 0.0
[3]; [32]
  Seizure frequency, Focal without impairment: 11.4
  Seizure frequency, Focal with impairment: 0.0
  Seizure frequency, Focal with secondary generalisation: 0.0
[3]; [33]
  Seizure frequency, Focal without impairment: 9.8
  Seizure frequency, Focal with impairment: 0.0
  Seizure frequency, Focal with secondary generalisation: 0.0
Seizures in patients
  onset of effect of seizure reduction: within one week
